{"source": "patent US9675609B2", "about": "(priority 2015, dated 2017)", "key": {"human tumor xenografts": {"test_system": "human tumor xenografts", "settings": "human tumor xenografts in mice; Pantazis et al.; cited from earlier work"}, "[1]": {"assay_type": "physicochemical", "settings": "PSD of raw powders"}, "[2]": {"test": "PK absorption of CZ48 in dogs", "assay_type": "in vivo", "settings": "Dog, 400 mg/kg based on API content", "text": "Tmax refers to time to reach Cmax."}, "human xenografts": {"test_system": "human xenografts", "test": "Raw CZ48 powders in cottonseed oil against 29 human xenografts in nude mice", "assay_type": "in vivo", "settings": "cancerous mice", "quoted_text": "(§1) Raw or native CZ48 powders have been intensively tested against human xenografts grown in nude mice. […] Cmax refers to the peak plasma concentration of the drug after administration."}, "human HT29-colon tumor": {"test_system": "human HT29-colon tumor", "settings": "nude mice; Cao et al. Cancer Research 2009; cited from earlier work"}, "[3]": {"test": "PK studies of raw CZ48 cottonseed oil suspension in mice", "settings": "dose 100 mg/kg or higher", "quoted_text": "as §1"}, "[4]": {"settings": "Wall et al. 1969; Giovanella et al. 1991; cited from earlier work"}, "[5]": {"settings": "analyte in blood, source CZ48 composite particles equivalent to 400 mg/kg API, single dose, female healthy mice, CPT is the metabolite"}}, "note": "Read-outs that look alike come from different tables or passages of the source.", "data": [{"smiles": "CC[C@@]1(O)C(=O)OCc2c1cc1n(c2=O)Cc2cc3c([N+](=O)[O-])cccc3nc2-1", "note": "[9NC, 9-nitrocamptothecin]", "values": [{"measurement": "times more potent than CPT", "setting": "human tumor xenografts", "value": "2-3 times"}]}, {"smiles": "CC[C@@]1(O)C(=O)OCc2c1cc1n(c2=O)Cc2cc3ccccc3nc2-1", "note": "[CPT, 20(S)-camptothecin, reference compound]", "values": [{"measurement": "AUC0-24", "setting": "[5]", "value": 51.7, "unit": "ng·h/mL"}, {"measurement": "Cmax", "setting": "[5]", "value": 26.0, "unit": "ng/mL"}, {"measurement": "Tmax", "setting": "[5]", "value": 30, "unit": "min"}]}, {"smiles": "CCC(=O)O[C@]1(CC)C(=O)OCc2c1cc1n(c2=O)Cc2cc3ccccc3nc2-1", "note": "[CZ48, camptothecin-20-O-propionate hydrate]", "values": [{"measurement": "D[4,3]", "setting": "[1]", "value": 7.612, "unit": "μm"}, {"measurement": "d(0.1)", "setting": "[1]", "value": 2.612, "unit": "μm"}, {"measurement": "d(0.5)", "setting": "[1]", "value": 6.220, "unit": "μm"}, {"measurement": "d(0.9)", "setting": "[1]", "value": 14.556, "unit": "μm"}, {"measurement": "AUC0-24", "setting": "[2]", "value": 38.7, "unit": "ng·h/mL"}, {"measurement": "Cmax", "setting": "[2]", "value": 3.4, "unit": "ng/mL"}, {"measurement": "Tmax", "setting": "[2]", "value": 240, "unit": "min"}, {"measurement": "Cmax minimum requirement for a positive effect", "setting": "human xenografts", "value": 100, "unit": "ng/mL"}, {"measurement": "Tmax", "setting": "Mouse, 400 mg/kg based on API content", "value": 60, "unit": "min"}, {"measurement": "Tmax", "setting": "[5]", "value": 30, "unit": "min"}, {"measurement": "dose needed to achieve the same result (good activity against HT29-colon tumor)", "setting": "human HT29-colon tumor", "value": 1000, "unit": "mg/kg"}, {"measurement": "Cmax", "setting": "[3]", "value": "greater than 100 ng/ml"}]}, {"smiles": "CC[C@@](O)(C(=O)[O-])c1cc2n(c(=O)c1CO)Cc1cc3ccccc3nc1-2.[Na+]", "note": "[sodium carboxylate salt]", "values": [{"measurement": "potency relative to native camptothecin with closed lactone ring", "setting": "[4]", "value": 10, "unit": "%"}]}]}
